Experimental data reported in patent US12678413B2, “Compositions containing pterosin compound and derivatives thereof active ingredients for prevention or treatment of degenerative brain diseases” (priority 2017, dated 2026).
Like-named read-outs stand apart in the source and are kept apart here.

How the values were obtained:
[1] = molecular target: T1, BACE1 (β-secretase, recombinant human enzyme) (Homo sapiens, UniProt P56817); assay: In vitro BACE1 activity assay (FRET kit); format: biochemical; details: compounds in 10% DMSO, concentrations up to 125 μM
T1 construct: purchased Pan Vera Co. (Madison, WI, USA)
T1 sequence (P56817 46-501): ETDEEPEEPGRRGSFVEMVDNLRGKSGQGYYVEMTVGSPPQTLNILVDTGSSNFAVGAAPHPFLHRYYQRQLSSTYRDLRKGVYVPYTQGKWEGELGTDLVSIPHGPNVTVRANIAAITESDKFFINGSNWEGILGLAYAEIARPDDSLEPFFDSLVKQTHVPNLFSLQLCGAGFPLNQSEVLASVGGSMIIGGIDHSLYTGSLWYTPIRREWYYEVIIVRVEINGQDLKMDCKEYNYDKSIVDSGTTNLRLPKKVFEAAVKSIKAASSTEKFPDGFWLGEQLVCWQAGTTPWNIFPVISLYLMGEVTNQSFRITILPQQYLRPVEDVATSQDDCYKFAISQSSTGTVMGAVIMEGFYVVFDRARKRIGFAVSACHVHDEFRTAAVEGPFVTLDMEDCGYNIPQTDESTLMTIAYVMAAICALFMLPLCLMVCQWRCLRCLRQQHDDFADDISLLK
Excerpt: BACE1 (beta-secretase) FRET assay kit was purchased from Pan Vera Co. (Madison, WI, USA). All the chemicals and solvents used in column chromatography were of reagent grade and were used as received without further purification.
A BACE1 fluorescence resonance energy transfer (FRET) assay kit (β-secretase, recombinant human enzyme) was purchased from Pan Vera Co. (Madison, WI, USA).
BACE1 is an enzyme promotive of the production of β-amyloid, which destroys neurons. In order to examine the effects on the compounds of Table 1 on the activity of BACE1, IC(inhibition concentrations)50 values were determined by measuring BACE1 activity in vitro according to Experimental Methods.

[2] = molecular target: T2, acetylcholinesterase (AChE) (Electrophorus electricus, UniProt O42275); assay: In vitro cholinesterase activity assay (Ellman), AChE; format: biochemical; details: for IC50: concentrations up to 125 μM, Mean ± SEM, read-out: IC50 Acetylcholine Esterase Mean ± SEM; for SI: selectivity index (BChE/AChE): ratio of IC50 BChE/AChE
T2 construct: purchased Sigma-Aldrich Co. (St. Louis, MO, USA)
T2 sequence (O42275 24-633): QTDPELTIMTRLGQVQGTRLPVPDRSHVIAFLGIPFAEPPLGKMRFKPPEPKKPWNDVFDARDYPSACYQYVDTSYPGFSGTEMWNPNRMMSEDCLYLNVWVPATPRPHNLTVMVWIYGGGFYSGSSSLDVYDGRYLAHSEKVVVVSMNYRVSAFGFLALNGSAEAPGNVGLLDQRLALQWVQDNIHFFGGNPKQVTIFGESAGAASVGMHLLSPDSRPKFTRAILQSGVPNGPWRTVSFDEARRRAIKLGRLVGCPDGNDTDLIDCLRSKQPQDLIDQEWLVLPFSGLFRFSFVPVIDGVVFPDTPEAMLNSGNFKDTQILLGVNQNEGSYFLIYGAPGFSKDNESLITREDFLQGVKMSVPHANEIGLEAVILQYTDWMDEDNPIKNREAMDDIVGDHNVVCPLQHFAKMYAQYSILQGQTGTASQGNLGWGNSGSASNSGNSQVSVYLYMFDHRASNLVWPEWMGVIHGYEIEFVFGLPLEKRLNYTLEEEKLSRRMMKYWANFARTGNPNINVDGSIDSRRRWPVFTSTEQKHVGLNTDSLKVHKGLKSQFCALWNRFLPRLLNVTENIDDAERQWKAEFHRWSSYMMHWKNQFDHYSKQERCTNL
Experimental: (§1) The reaction started with the addition of 10 μL of DTNB and 10 μL of Ach or Bch.
(§2) Briefly, the basis for this assay is the hydrolysis of acetylthiocholine by acetylcholinesterase, producing thiocholine that reacts with DTNB. […] Degrees of inhibition were calculated according to […] wherein E and S represent enzyme activities in the presence and absence of a test sample, respectively.
(§3) The compounds of Table 1 were evaluated for anti-Alzheimer activity. In this regard, inhibitory activity against AChE (acetylcholinesterase) and BChE (butyrylcholinesterase), which lyse acetylcholine in the central nervous system, was measured according to the Experimental Method to calculate IC(inhibition concentrations)50 values.

B16F10 cells = assay: MTT cytotoxicity assay, cancerous cell line B16F10; format: cell-based; details: B16F10 mouse melanoma, 48 hours incubation
Experimental: (§4) The normal cell line NIH3T3 (mouse embryo fibroblast cell-line) and the cancerous cell line B16F10 (mouse melanoma cell-line) were separately grown in 96-well plates and incubated for 48 hours with predetermined concentrations of each of the compounds. After additional incubation with MTT, absorbance at 550 nm was read using a microplate reader. Absorbance is an index accounting for a number of viable cells and was used to calculate cell proliferation rates according to the following formula. All experiments were conducted three times for reproducibility. Cell proliferation rate (%)=OD550(sample)/OD550(control)
(§5) Then, LD50 (Lethal Dose 50) values were calculated on the basis of changes in the cell proliferation rate.

NIH3T3 cells = assay: MTT cytotoxicity assay, normal cell line NIH3T3; format: cell-based; details: NIH3T3 mouse embryo fibroblast, 48 hours incubation
Experimental: as §4, §5

[3] = molecular target: T3, butyrylcholinesterase (BChE) (Equus caballus, UniProt P81908); assay: In vitro cholinesterase activity assay (Ellman), BChE; format: biochemical; details: concentrations up to 125 μM; Mean ± SEM; read-out: IC50 Butyrylcholine esterase Mean ± SEM
T3 construct: horse serum butyrylcholinesterase (BChE, EC3.1.1.8); purchased Sigma-Aldrich Co. (St. Louis, MO, USA); host or cells: horse serum
T3 sequence (P81908 whole entry): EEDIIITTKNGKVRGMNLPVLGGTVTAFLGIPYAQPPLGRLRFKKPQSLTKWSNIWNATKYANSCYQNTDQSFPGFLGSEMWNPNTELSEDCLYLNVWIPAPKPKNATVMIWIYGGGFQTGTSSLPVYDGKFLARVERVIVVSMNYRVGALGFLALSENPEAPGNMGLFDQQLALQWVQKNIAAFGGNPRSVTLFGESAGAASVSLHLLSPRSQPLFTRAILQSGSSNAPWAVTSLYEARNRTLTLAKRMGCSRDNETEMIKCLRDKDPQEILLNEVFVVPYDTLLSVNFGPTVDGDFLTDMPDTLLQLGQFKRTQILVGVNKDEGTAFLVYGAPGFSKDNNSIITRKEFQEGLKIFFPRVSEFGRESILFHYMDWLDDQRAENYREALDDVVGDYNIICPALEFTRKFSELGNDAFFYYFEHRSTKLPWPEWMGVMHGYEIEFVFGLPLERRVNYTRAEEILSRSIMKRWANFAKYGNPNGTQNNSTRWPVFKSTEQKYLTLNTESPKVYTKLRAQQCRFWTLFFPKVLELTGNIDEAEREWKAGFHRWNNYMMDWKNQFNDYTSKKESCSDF
Experimental: as §1, §2, §3

BACE1 = molecular target: T4, BACE1 (Homo sapiens, UniProt P56817); assay: BACE1 enzyme kinetics (Dixon plot and Lineweaver plot); format: biochemical
T4 construct: purchased Pan Vera Co. (Madison, WI, USA)
T4 sequence (P56817 46-501): as the sequence (P56817 46-501) above
Experimental: A BACE1 fluorescence resonance energy transfer (FRET) assay kit (β-secretase, recombinant human enzyme) was purchased from Pan Vera Co. (Madison, WI, USA). The assay was carried out according to the manual provided, with a modification made thereto as described by Jung et al. (Jung et al., Biol Pharm Bull, 2010, 33:267-272). Quercetin was used as a positive control.
In addition, an enzyme kinetics experiment was conducted using the Lineweaver plot and Dixon plot (see FIG. 7) in order to examine the BACE1 inhibition mechanism of the novel compound (Compound 2). […] The results of the experiment indicate that the novel compound of the present disclosure is a very potent inhibitor against BACE1.

[4] = molecular target: T2, acetylcholinesterase (AChE); assay: AChE enzyme kinetics (Dixon plot and Lineweaver plot); format: biochemical
Experimental: as §1, §2

[5] = molecular target: T3, butyrylcholinesterase (BChE); assay: BChE enzyme kinetics (Dixon plot and Lineweaver plot); format: biochemical
Experimental: as §1, §2

[6] = listed as 3-[2-(1-acetylcycloproply)-1-propenyl]-5-methyl-2-cyclopenten-1-one

Row | SMILES | IC50 [1] [µM] | IC50 [2] [µM] | SI: selectivity index (BChE/AChE) [2] | LD50 Cancer cell B16F10 (B16F10 cells) | LD50 Normal cell NIH3T3 (NIH3T3 cells) | IC50 [3] [µM] | Ki (BACE1) [µM] | other results
1 | Cc1cc2c(c(C)c1CCO[C@@H]1OC(CO)[C@@H](O)C(O)C1O)C(=O)[C@](C)(O)C2 (single isomer, unassigned; (-)) [Compound 18, (−)-pteroside N] | 30.6 ± 1.8 | 4.47 ± 0.29 | 1.7 | >5,000 μM | >5,000 μM | 7.39 ± 0.99 | – | –
2 | COc1ccc2cc3[n+](cc2c1OC)CCc1cc2c(cc1-3)OCO2 [Berberine, reference compound] | – | 0.39 ± 0.01 | – | – | – | – | – | –
3 | CC(=O)C1(/C(C)=C\C2=CC(=O)C(C)C2)CC1 (stereo not shown) [Compound 2, 3-[2-(1-Acetylcyclopropyl)-1-propenyl)-5-methyl-2-cyclopenten-1-one] | – | – | 0.83 | 688 µM | 1,550 μM | – | 19 | LD50 Cancer cell B16F10 (B16F10 cells; [6]): 688 ± 17 µM; LD50 Normal cell NIH3T3 (NIH3T3 cells; [6]): 1,550 ± 100 μM; Inhibition type BACE1 (BACE1; [6]): Mixed-type; Inhibition type BACE1 (BACE1; listed as novel compound): mixed type
4 | Cc1cc2c(c(C)c1CCO)C(=O)[C@](C)(CO)C2 [Compound 3, (2S)-pterosin A] | – | – | 1.2 | – | >5,000 μM | – | – | LD50 Cancer cell B16F10 (B16F10 cells; listed as (2S)-Pterosin A): 522 ± 25 µM; LD50 Cancer cell B16F10 (B16F10 cells; listed as pterosin A): 522 ± 25 µM
5 | Cc1cc2c(c(C)c1CCO)C(=O)[C@H](C)C2 [Compound 4, (2R)-pterosin B] | – | 16.2 ± 1 | 3.0 | >5,000 μM | – | 48.1 ± 0.59 | 38.3 | Inhibition type Acetylcholinesterase [4]: mixed type; Ki [4]: 12.1 µM; Inhibition type Acetylcholinesterase ([4]; listed as (2R)-Pterosin B): Mixed-type; Inhibition type Butyrylcholinesterase [5]: noncompetitive type; Ki [5]: 53.5 µM; Inhibition type Butyrylcholinesterase ([5]; listed as (2R)-Pterosin B): Noncompetitive; LD50 Normal cell NIH3T3 (NIH3T3 cells; listed as (2,R)-Pterosin B): 3,110 ± 130 μM; LD50 Normal cell NIH3T3 (NIH3T3 cells; listed as pterosin B): 3,110±130 μM; Inhibition type BACE1 (BACE1): noncompetitive type; Inhibition type BACE1 (BACE1; listed as (2R)-Pterosin B): Noncompetitive
6 | Cc1cc2c(c(C)c1CCO)C(=O)[C@H](C)[C@@H]2O [Compound 5, (2R,3S)-pterosin C] | – | – | – | >5,000 μM | >5,000 μM | – | – | –
7 | Cc1cc2c(c(C)c1CCO)C(=O)[C@@H](C)[C@@H]2O [Compound 6, (2S,3S)-pterosin C] | – | – | – | >5,000 μM | >5,000 μM | – | – | –
8 | Cc1cc2c(c(C)c1CCO)C(=O)[C@H](C)[C@H]2O [Compound 7, (2R,3R)-pterosin C] | – | 23.2 ± 4.6 | 0.89 | >5,000 μM | >5,000 μM | 20.3 ± 0.88 | 27.6 | Inhibition type Acetylcholinesterase [4]: noncompetitive type; Ki [4]: 29.6 µM; Inhibition type Acetylcholinesterase ([4]; listed as (2R,3R)-Pterosin C): Noncompetitive; Inhibition type Butyrylcholinesterase [5]: mixed type; Ki [5]: 4.77 µM; Inhibition type Butyrylcholinesterase ([5]; listed as (2R,3R)-Pterosin C): Mixed-type; Inhibition type BACE1 (BACE1): mixed type; Inhibition type BACE1 (BACE1; listed as (2R,3R)-Pterosin C): Mixed-type
9 | Cc1cc2c(c(C)c1CCO)C(=O)[C@@H](C)[C@H]2O [Compound 8, (2S,3R)-pterosin C] | – | 12.8 ± 0.79 | 3.5 | >5,000 μM | >5,000 μM | 44.3 ± 1 | 33.8 | Inhibition type Acetylcholinesterase [4]: mixed type; Ki [4]: 16.3 µM; Inhibition type Acetylcholinesterase ([4]; listed as (2S,3R)-Pterosin C): Mixed-type; Inhibition type Butyrylcholinesterase [5]: noncompetitive type; Ki [5]: 29.9 µM; Inhibition type Butyrylcholinesterase ([5]; listed as (2S,3R)-Pterosin C): Noncompetitive; Inhibition type BACE1 (BACE1): noncompetitive type; Inhibition type BACE1 (BACE1; listed as (2S,3R)-Pterosin C): Noncompetitive
10 | Cc1cc2c(c(C)c1CCO)C(=O)C(C)(C)[C@@H]2O [Compound 9, (3R)-Pterosin D] | – | 68.7 ± 3.7 | – | >5,000 μM | >5,000 μM | > 125 | – | –
11 | Cc1c(CCO)c(CO)cc2c1C(=O)[C@@H](C)C2 [Compound 10, (2S)-pterosin P] | – | 17.8 ± 0.62 | 3.1 | >5,000 μM | >5,000 μM | 55.9 ± 5.6 | – | –
12 | Cc1cc2c(c(C)c1CCO)C(=O)C(C)(C)C2 [Compound 11, pterosin Z] | – | 46.5 ± 3.4 | 1.7 | – | – | 80.1 ± 6.8 | – | LD50 Cancer cell B16F10 (B16F10 cells; listed as PterosinZ): 618 ± 71 µM; LD50 Cancer cell B16F10 (B16F10 cells; listed as pterosin Z): 618 ± 71 µM; LD50 Normal cell NIH3T3 (NIH3T3 cells; listed as PterosinZ): 553 ± 37 µM; LD50 Normal cell NIH3T3 (NIH3T3 cells; listed as pterosin Z): 553 ± 37 µM
13 | Cc1cc2c(c(C)c1CCO[C@@H]1OC(CO)[C@@H](O)[C@H](O)C1O)C(=O)[C@](C)(CO)C2 (stereo partly drawn) [Compound 12, (2S)-pteroside A] | 84.6 ± 6 | 110 ± 3 | 0.17 | >5,000 μM | >5,000 μM | 19.4 ± 0.22 | – | –
14 | Cc1cc2c(c(C)c1CCO)C(=O)[C@](C)(COC1O[C@H](CO)[C@@H](O)[C@H](O)[C@H]1O)C2 (stereo partly drawn) [Compound 13, (2S)-pteroside A2] | – | 39.3 ± 1.9 | 3.0 | >5,000 μM | >5,000 μM | – | – | –
15 | Cc1cc2c(c(C)c1CCO[C@@H]1OC(CO)[C@@H](O)[C@H](O)C1O)C(=O)[C@@H](C)[C@H]2O (stereo partly drawn) [Compound 15, (2S,3R)-pteroside C] | 28.9 ± 2.2 | – | 1.4 | >5,000 μM | >5,000 μM | – | – | –
16 | Cc1cc2c(c(C)c1CCO[C@@H]1OC(CO)[C@@H](O)[C@H](O)C1O)C(=O)[C@H](C)[C@H]2O (stereo partly drawn) [Compound 16, (2R,3R)-pteroside C] | 9.74 ± 1.9 | – | 1.4 | >5,000 μM | >5,000 μM | – | 12.6 | Inhibition type BACE1 (BACE1): mixed type; Inhibition type BACE1 (BACE1; listed as (2R,3R)-Pteroside C): Mixed-type
17 | Cc1cc2c(c(C)c1CCO[C@@H]1OC(CO)[C@@H](O)[C@H](O)C1O)C(=O)C(C)(C)[C@H]2O (stereo partly drawn) [Compound 17, (3S)-pteroside D] | 10.7 ± 1.5 | – | 0.70 | >5,000 μM | >5,000 μM | – | 16.5 | Inhibition type BACE1 (BACE1): mixed type; Inhibition type BACE1 (BACE1; listed as (3S)-Pteroside D): Mixed-type
18 | Cc1cc2c(c(C)c1CCO[C@@H]1OC(CO)[C@@H](O)[C@H](O)C1O)C(=O)C(C)(C)C2 (stereo partly shown) [Compound 20, pteroside Z] | 60 ± 4.3 | 22.4 ± 2.2 | 0.24 | >5,000 μM | >5,000 μM | – | – | –
